Test results: PubChem BioAssay AID2060508 (Molecular Pharmacology Branch, DTP, NCI, 2025)

Tested on: 454973-116-R2-J3-PDC spheroids, viability, % test/control
Assay: Anticancer human tumor 454973-116-R2-J3-PDC patient-derived pancreatic carcinoma cell line growth inhibition [GQUAD]
Conditions: spheroids with HUVEC and MSC; for IC50: curve of first compound; for viability, T/C: stronger effect = lower value
In short: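 Tumor cells were grown as complex spheroids with HUVEC endothelial cells and mesenchymal stem cells as stroma. G-quadruplex stabilizers were combined with targeted agents over half-log dilutions from near the clinical Cmax, or from 10 microM.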

[1] = second compound 0.0316 µM, first compound 0.0316 µM
[2] = second compound 0.0316 µM, first compound 0.1 µM
[3] = second compound 0.0316 µM, first compound 0.316 µM
[4] = second compound 0.0316 µM, first compound 1 µM
[5] = second compound 0.0316 µM, first compound 3.16 µM
[6] = second compound 0.0316 µM, first compound 10 µM
[7] = second compound 0.1 µM, first compound 0.0316 µM
[8] = second compound 0.1 µM, first compound 0.1 µM
[9] = second compound 0.1 µM, first compound 0.316 µM
[10] = second compound 0.1 µM, first compound 1 µM
[11] = second compound 0.1 µM, first compound 3.16 µM
[12] = second compound 0.1 µM, first compound 10 µM
[13] = second compound 0.316 µM, first compound 0.0316 µM
[14] = second compound 0.316 µM, first compound 0.1 µM
[15] = second compound 0.316 µM, first compound 0.316 µM
[16] = second compound 0.316 µM, first compound 1 µM
[17] = second compound 0.316 µM, first compound 3.16 µM
[18] = second compound 0.316 µM, first compound 10 µM
[19] = second compound 1 µM, first compound 0.0316 µM
[20] = second compound 1 µM, first compound 0.1 µM
[21] = second compound 1 µM, first compound 0.316 µM
[22] = second compound 1 µM, first compound 1 µM
[23] = second compound 1 µM, first compound 3.16 µM
[24] = second compound 1 µM, first compound 10 µM
[25] = second compound 3.16 µM, first compound 0.0316 µM
[26] = second compound 3.16 µM, first compound 0.1 µM
[27] = second compound 3.16 µM, first compound 0.316 µM
[28] = second compound 3.16 µM, first compound 1 µM
[29] = second compound 3.16 µM, first compound 3.16 µM
[30] = second compound 3.16 µM, first compound 10 µM
[31] = second compound 10 µM, first compound 0.0316 µM
[32] = second compound 10 µM, first compound 0.1 µM
[33] = second compound 10 µM, first compound 0.316 µM
[34] = second compound 10 µM, first compound 1 µM
[35] = second compound 10 µM, first compound 3.16 µM
[36] = second compound 10 µM, first compound 10 µM
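Also: spheroids exposed to compounds for seven days.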
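For viability, T/C in this document: 100% = DMSO vehicle control viability.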

CC(C)(O)C1CCC(Nc2ccc3ncc(-c4cccc(C(F)(F)F)c4)n3n2)CC1 (centres undefined) + Cc1cnc(CNC(=O)c2c(=O)c3ccc(N4CCCN(C)CC4)nc3n3c2sc2ccccc23)cn1
IC50 (second compound 0.0316 µM): 1.73 µM | IC50 (second compound 0.1 µM): 1.55 µM | IC50 (second compound 0.316 µM): 1.63 µM | IC50 (second compound 1 µM): 1.74 µM | IC50 (second compound 3.16 µM): 1.36 µM | IC50 (second compound 10 µM): < 0.0316 µM | viability, T/C [1]: 108% | viability, T/C [2]: 89.3% | viability, T/C [3]: 96.5% | viability, T/C [4]: 75% | viability, T/C [5]: 21.5% | viability, T/C [6]: 23.8% | viability, T/C [7]: 83.3% | viability, T/C [8]: 83.8% | viability, T/C [9]: 85.4% | viability, T/C [10]: 65.4% | viability, T/C [11]: 22% | viability, T/C [12]: 27.6% | viability, T/C [13]: 82.8% | viability, T/C [14]: 69.2% | viability, T/C [15]: 76.2% | viability, T/C [16]: 64.3% | viability, T/C [17]: 28.9% | viability, T/C [18]: 32.1% | viability, T/C [19]: 76.4% | viability, T/C [20]: 65.6% | viability, T/C [21]: 65.1% | viability, T/C [22]: 66.5% | viability, T/C [23]: 31.9% | viability, T/C [24]: 32.5% | viability, T/C [25]: 66.9% | viability, T/C [26]: 65.2% | viability, T/C [27]: 63.9% | viability, T/C [28]: 59.8% | viability, T/C [29]: 21.3% | viability, T/C [30]: 25.9% | viability, T/C [31]: 0.3% | viability, T/C [32]: 17.6% | viability, T/C [33]: 49% | viability, T/C [34]: 0.58% | viability, T/C [35]: 0.43% | viability, T/C [36]: 0.23%

COc1ncnc(C2CC2)c1-c1ncc2cnn(Cc3ccc(-c4nc(C(F)(F)F)cn4C(C)C)cc3)c2n1 + Cc1cnc(CNC(=O)c2c(=O)c3ccc(N4CCCN(C)CC4)nc3n3c2sc2ccccc23)cn1
IC50 (second compound 0.0316 µM): > 10 µM | IC50 (second compound 0.1 µM): > 10 µM | IC50 (second compound 0.316 µM): > 10 µM | IC50 (second compound 1 µM): > 10 µM | IC50 (second compound 3.16 µM): > 10 µM | IC50 (second compound 10 µM): < 0.0316 µM | viability, T/C [1]: 96% | viability, T/C [2]: 94% | viability, T/C [3]: 87.8% | viability, T/C [4]: 104% | viability, T/C [5]: 88.9% | viability, T/C [6]: 86.9% | viability, T/C [7]: 82.1% | viability, T/C [8]: 69.4% | viability, T/C [9]: 74.7% | viability, T/C [10]: 71.4% | viability, T/C [11]: 69% | viability, T/C [12]: 63.4% | viability, T/C [13]: 65.4% | viability, T/C [14]: 61.9% | viability, T/C [15]: 59.5% | viability, T/C [16]: 69.2% | viability, T/C [17]: 60% | viability, T/C [18]: 62% | viability, T/C [19]: 55.3% | viability, T/C [20]: 69.4% | viability, T/C [21]: 57.4% | viability, T/C [22]: 63.2% | viability, T/C [23]: 61.4% | viability, T/C [24]: 58.4% | viability, T/C [25]: 61.7% | viability, T/C [26]: 58.8% | viability, T/C [27]: 61.7% | viability, T/C [28]: 57.8% | viability, T/C [29]: 67.8% | viability, T/C [30]: 54% | viability, T/C [31]: 0.22% | viability, T/C [32]: 19.6% | viability, T/C [33]: 50.4% | viability, T/C [34]: 40.6% | viability, T/C [35]: 0.38% | viability, T/C [36]: 0.3%
